Experimental data taken from PubChem BioAssay AID2286 (Southern Research Specialized Biocontainment Screening …, 2010).
Activity calls are given as the source filed them.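 How the source made its calls: active means minimum cell viability of 80% or lower across the dose range, counted as toxic; inactive means minimum cell viability above 80%.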

Tests used:
[1] = viability loss in fusion assay cells – cell-based, MAGI and MAGI-HeLa co-culture, cytotoxicity control for HIV-1 fusion inhibitor project, dose response (AID 2286); conditions: MAGI-CCR5 cells viability, CellTiter-Glo ATP luminescence; for minimum viability: measured here: MAGI minimum viability across doses;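 on all read-outs here: cells exposed to compound for at least 64 h before ATP readout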;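 on minimum viability: 100% = median of DMSO vehicle wells with no ATP signal meaning 0%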;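 on viability: 100% = median of DMSO vehicle wells with no ATP signal meaning 0%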
[2] = tested on: MAGI-CCR5 cells viability, CellTiter-Glo ATP luminescence; test: as above
[3] = MAGI-HeLa co-culture viability, at 50 µM, stronger effect = lower value
[4] = measured here: MAGI + HeLa-R5-16 co-culture viability

SMILES	viability [1, 3] [%]	minimum viability ([1]; at 50 µM, stronger effect = lower value) [%]	CC50 [2] [µM]	CC50 [2, 4] [µM]	viability ([1]; at 50 µM (top of the series))	minimum viability ([1]; at 3.13 µM, stronger effect = lower value) [%]
O=[N+]([O-])c1cccc(S(=O)(=O)Nc2nc3ccccc3nc2Nc2cccc(S(=O)(=O)N3CCCCC3)c2)c1	20.4	19.9	7.22	14.1	–	–
CCn1nc([N+](=O)[O-])c(C(C#N)c2nc3cc(C(F)(F)F)ccc3s2)c(Cl)c1=O (configuration not stated)	–	22.2	27.8	–	–	–
CCCCCCCCCCCCCCCCn1cc[n+](CC(C)=O)c1	3.56	2.77	1.36	2.09	–	–
COc1ccc(/C=C2/SC(=S)N(CC(=O)O)C2=O)cc1OCc1ccc(Cl)cc1	67	–	–	> 50	104% (inactive)	85.8
O=C(O)CN1C(=O)/C(=C\c2cc(Br)ccc2OCc2ccc([N+](=O)[O-])cc2)SC1=S	24.7	69.8	–	19.9	–	–
